Assay results published in ChEMBL document CHEMBL4725230, “Syntheses and pharmacokinetic evaluations of four metabolites of 2-(4-(2-((1H-benzo[d]imidazol-2-yl)thio)ethyl)piperazin-1-yl)-N-(6-methyl-2,4-bis-(methylthio)pyridin-3-yl)acetamide hydrochloride [K-604], an acyl-CoA:cholesterol O-acyltransferase-1 inhibitor” (Bioorg Med Chem, 2020).

Key:
[1] = tested on: Cytochrome P450; experiment: Drug metabolism in human liver microsomes assessed as Vmax for cytochrome p450-mediated 2-(4-(2-((1H-Benzo[d]imidazol-2-yl)sulfinyl)ethyl)piperazin-1-yl)-N-(6-methyl-2,4-bis(methylthio)pyridin-3-yl)acetamide formation; format: ADME
[2] = biological target: T1, Cytochrome P450 3A2 (Rattus norvegicus, UniProt P05183); experiment: Drug metabolism in male rat liver microsomes assessed as CYP3A2-mediated 2-(4-(2-((1H-Benzo[d]imidazol-2-yl)thio)ethyl)piperazin-1-yl)-N-(6-methyl-2-(methyl-sulfinyl)-4-(methylthio)pyridin-3-yl)acetamide formation; format: ADME
T1 sequence (P05183 whole entry): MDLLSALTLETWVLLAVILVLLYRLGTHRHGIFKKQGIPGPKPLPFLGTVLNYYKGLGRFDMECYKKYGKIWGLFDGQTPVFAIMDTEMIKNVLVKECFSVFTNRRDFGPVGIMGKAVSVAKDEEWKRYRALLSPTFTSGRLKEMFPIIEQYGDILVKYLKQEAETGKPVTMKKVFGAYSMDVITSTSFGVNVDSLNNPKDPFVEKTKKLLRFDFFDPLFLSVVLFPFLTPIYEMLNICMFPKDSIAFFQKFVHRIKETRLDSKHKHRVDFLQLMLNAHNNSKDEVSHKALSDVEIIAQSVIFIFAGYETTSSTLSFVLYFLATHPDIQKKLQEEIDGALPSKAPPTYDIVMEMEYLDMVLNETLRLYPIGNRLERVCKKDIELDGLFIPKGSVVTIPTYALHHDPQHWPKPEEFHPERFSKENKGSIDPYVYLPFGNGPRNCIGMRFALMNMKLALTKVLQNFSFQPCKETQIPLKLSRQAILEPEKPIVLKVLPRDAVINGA

[3] = biological target: T2, Cytochrome P450 3A5 (Homo sapiens, UniProt P20815); experiment: Drug metabolism in human liver microsomes assessed as CYP3A5-mediated 2-(4-(2-((1H-Benzo[d]imidazol-2-yl)sulfinyl)ethyl)piperazin-1-yl)-N-(6-methyl-2,4-bis(methylthio)pyridin-3-yl)acetamide formation; format: ADME
[4] = Metabolic stability in cynomolgus monkey plasma assessed as parent compound remaining formation at 10 mg/kg, administered into stomach using nasogastric catheter measured upto 360 mins by column-switching HPLC method; format: ADME, organism-based, Macaca fascicularis; conditions: in vivo, po, 6 h
[5] = Clearance in human liver microsomes assessed per mg protein for 5 mins in presence of NADPH by LC-MS/MS analysis; format: ADME, Microsome; conditions: read-out: CLH
[6] = tested on: Cytochrome P450; experiment: Drug metabolism in human liver microsomes assessed as Km for cytochrome p450-mediated 2-(4-(2-((1H-Benzo[d]imidazol-2-yl)thio)ethyl)piperazin-1-yl)-N-(6-methyl-2-(methyl-sulfinyl)-4-(methylthio)pyridin-3-yl)acetamide formation; format: ADME
[7] = biological target: T3, Cytochrome P450 3A4 (Homo sapiens, UniProt P08684); experiment: Drug metabolism in human liver microsomes assessed as CYP3A4-mediated 2-(4-(2-((1H-Benzo[d]imidazol-2-yl)thio)ethyl)piperazin-1-yl)-N-(6-methyl-2-(methyl-sulfinyl)-4-(methylthio)pyridin-3-yl)acetamide formation; format: ADME
[8] = Metabolic stability in female rat liver microsomes assessed as parent compound remaining; format: ADME, Microsome
[9] = Drug metabolism in cynomolgus monkey plasma assessed as 2-(4-(2-((5-Hydroxy-1H-benzo[d]imidazol-2-yl)thio)ethyl)piperazin-1-yl)-N-(6-methyl-2,4-bis(methylthio)pyridin-3-yl)acetamide formation at 10 mg/kg, administered into stomach using nasogastric catheter measured upto 360 mins by column-switching HPLC method; format: ADME, organism-based, Macaca fascicularis; conditions: in vivo, po, 6 h
[10] = tested on: Cytochrome P450; experiment: Drug metabolism in human liver microsomes assessed as Vmax for cytochrome p450-mediated 2-(4-(2-((1H-Benzo[d]imidazol-2-yl)thio)ethyl)piperazin-1-yl)-N-(6-methyl-2-(methyl-sulfinyl)-4-(methylthio)pyridin-3-yl)acetamide formation; format: ADME
[11] = tested on: Cytochrome P450; experiment: Drug metabolism in human liver microsomes assessed as Vmax for cytochrome p450-mediated 2-(4-(2-((5-Hydroxy-1H-benzo[d]imidazol-2-yl)thio)ethyl)piperazin-1-yl)-N-(6-methyl-2,4-bis(methylthio)pyridin-3-yl)acetamide formation; format: ADME
[12] = biological target: T2, Cytochrome P450 3A5; experiment: Drug metabolism in human liver microsomes assessed as CYP3A5-mediated 2-(4-(2-((5-Hydroxy-1H-benzo[d]imidazol-2-yl)thio)ethyl)piperazin-1-yl)-N-(6-methyl-2,4-bis(methylthio)pyridin-3-yl)acetamide formation; format: ADME
[13] = biological target: T4, Cytochrome P450 2C9 (Homo sapiens, UniProt P11712); experiment: Drug metabolism in human liver microsomes assessed as CYP2C9-mediated 2-(4-(2-((1H-Benzo[d]imidazol-2-yl)thio)ethyl)piperazin-1-yl)-N-(6-methyl-2-(methyl-sulfinyl)-4-(methylthio)pyridin-3-yl)acetamide formation; format: ADME
[14] = biological target: T1, Cytochrome P450 3A2; experiment: Drug metabolism in male rat liver microsomes assessed as CYP3A2-mediated 2-(4-(2-((1H-Benzo[d]imidazol-2-yl)thio)ethyl)piperazin-1-yl)-N-(6-methyl-4-(methylsulfinyl)-2-(methylthio)pyridin-3-yl)acetamide formation; format: ADME
[15] = biological target: T2, Cytochrome P450 3A5; experiment: Drug metabolism in human liver microsomes assessed as CYP3A5-mediated 2-(4-(2-((1H-Benzo[d]imidazol-2-yl)thio)ethyl)piperazin-1-yl)-N-(6-methyl-4-(methylsulfinyl)-2-(methylthio)pyridin-3-yl)acetamide formation; format: ADME
[16] = biological target: T5, Cytochrome P450 2C11 (Rattus norvegicus, UniProt P08683); experiment: Drug metabolism in […] rat liver microsomes assessed as CYP2C11-mediated 2-(4-(2-((1H-Benzo[d]imidazol-2-yl)thio)ethyl)piperazin-1-yl)-N-(6-methyl-4-(methylsulfinyl)-2-(methylthio)pyridin-3-yl)acetamide formation; format: ADME
T5 sequence (P08683 whole entry): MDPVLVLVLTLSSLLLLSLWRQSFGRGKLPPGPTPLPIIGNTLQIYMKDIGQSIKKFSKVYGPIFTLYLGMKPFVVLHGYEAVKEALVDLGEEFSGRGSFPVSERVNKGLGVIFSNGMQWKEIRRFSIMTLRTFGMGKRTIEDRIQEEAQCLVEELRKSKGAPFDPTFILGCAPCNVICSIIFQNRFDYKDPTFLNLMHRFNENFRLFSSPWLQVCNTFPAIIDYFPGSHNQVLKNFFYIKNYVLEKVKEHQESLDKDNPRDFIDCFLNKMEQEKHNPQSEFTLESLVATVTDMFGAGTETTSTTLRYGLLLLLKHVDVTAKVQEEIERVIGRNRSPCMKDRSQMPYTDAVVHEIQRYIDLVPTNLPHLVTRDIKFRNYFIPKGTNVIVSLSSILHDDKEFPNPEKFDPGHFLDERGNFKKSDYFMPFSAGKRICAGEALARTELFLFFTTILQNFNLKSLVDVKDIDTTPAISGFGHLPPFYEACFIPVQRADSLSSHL

[17] = biological target: T2, Cytochrome P450 3A5; experiment: Drug metabolism in human liver microsomes assessed as CYP3A5-mediated 2-(4-(2-((1H-Benzo[d]imidazol-2-yl)thio)ethyl)piperazin-1-yl)-N-(6-methyl-2-(methyl-sulfinyl)-4-(methylthio)pyridin-3-yl)acetamide formation; format: ADME
[18] = biological target: T4, Cytochrome P450 2C9; experiment: Drug metabolism in human liver microsomes assessed as CYP2C9-mediated 2-(4-(2-((1H-Benzo[d]imidazol-2-yl)sulfinyl)ethyl)piperazin-1-yl)-N-(6-methyl-2,4-bis(methylthio)pyridin-3-yl)acetamide formation; format: ADME
[19] = tested on: Cytochrome P450; experiment: Drug metabolism in human liver microsomes assessed as Km for cytochrome p450-mediated 2-(4-(2-((1H-Benzo[d]imidazol-2-yl)sulfinyl)ethyl)piperazin-1-yl)-N-(6-methyl-2,4-bis(methylthio)pyridin-3-yl)acetamide formation; format: ADME
[20] = Drug metabolism in cynomolgus monkey plasma assessed as 2-(4-(2-((1H-Benzo[d]imidazol-2-yl)thio)ethyl)piperazin-1-yl)-N-(6-methyl-4-(methylsulfinyl)-2-(methylthio)pyridin-3-yl)acetamide formation at 10 mg/kg, administered into stomach using nasogastric catheter measured upto 360 mins by column-switching HPLC method; format: ADME, organism-based, Macaca fascicularis; conditions: in vivo, po, 6 h
[21] = Drug metabolism in cynomolgus monkey plasma assessed as 2-(4-(2-((1H-Benzo[d]imidazol-2-yl)thio)ethyl)piperazin-1-yl)-N-(6-methyl-2-(methyl-sulfinyl)-4-(methylthio)pyridin-3-yl)acetamide formation at 10 mg/kg, administered into stomach using nasogastric catheter measured upto 360 mins by column-switching HPLC method; format: ADME, organism-based, Macaca fascicularis; conditions: in vivo, po, 6 h
[22] = tested on: Cytochrome P450; experiment: Drug metabolism in human liver microsomes assessed as Km for cytochrome p450-mediated 2-(4-(2-((5-Hydroxy-1H-benzo[d]imidazol-2-yl)thio)ethyl)piperazin-1-yl)-N-(6-methyl-2,4-bis(methylthio)pyridin-3-yl)acetamide formation; format: ADME
[23] = Clearance in human liver microsomes assessed as 2-(4-(2-((1H-Benzo[d]imidazol-2-yl)sulfinyl)ethyl)piperazin-1-yl)-N-(6-methyl-2,4-bis(methylthio)pyridin-3-yl)acetamide level per mg protein; format: ADME, Microsome
[24] = Clearance in human liver microsomes assessed as 2-(4-(2-((1H-Benzo[d]imidazol-2-yl)thio)ethyl)piperazin-1-yl)-N-(6-methyl-2-(methyl-sulfinyl)-4-(methylthio)pyridin-3-yl)acetamide level per mg protein; format: ADME, Microsome
[25] = tested on: Cytochrome P450; experiment: Drug metabolism in human liver microsomes assessed as Km for cytochrome p450-mediated 2-(4-(2-((1H-Benzo[d]imidazol-2-yl)thio)ethyl)piperazin-1-yl)-N-(6-methyl-4-(methylsulfinyl)-2-(methylthio)pyridin-3-yl)acetamide formation; format: ADME
[26] = biological target: T4, Cytochrome P450 2C9; experiment: Drug metabolism in human liver microsomes assessed as CYP2C9-mediated 2-(4-(2-((1H-Benzo[d]imidazol-2-yl)thio)ethyl)piperazin-1-yl)-N-(6-methyl-4-(methylsulfinyl)-2-(methylthio)pyridin-3-yl)acetamide formation; format: ADME
[27] = biological target: T3, Cytochrome P450 3A4; experiment: Drug metabolism in human liver microsomes assessed as CYP3A4-mediated 2-(4-(2-((5-Hydroxy-1H-benzo[d]imidazol-2-yl)thio)ethyl)piperazin-1-yl)-N-(6-methyl-2,4-bis(methylthio)pyridin-3-yl)acetamide formation; format: ADME
[28] = Clearance in human liver microsomes assessed as 2-(4-(2-((1H-Benzo[d]imidazol-2-yl)thio)ethyl)piperazin-1-yl)-N-(6-methyl-4-(methylsulfinyl)-2-(methylthio)pyridin-3-yl)acetamide level per mg protein; format: ADME, Microsome
[29] = Drug metabolism in cynomolgus monkey plasma assessed as 2-(4-(2-((1H-Benzo[d]imidazol-2-yl)sulfinyl)ethyl)piperazin-1-yl)-N-(6-methyl-2,4-bis(methylthio)pyridin-3-yl)acetamide formation at 10 mg/kg, administered into stomach using nasogastric catheter measured upto 360 mins by column-switching HPLC method; format: ADME, organism-based, Macaca fascicularis; conditions: in vivo, po, 6 h
[30] = biological target: T3, Cytochrome P450 3A4; experiment: Drug metabolism in human liver microsomes assessed as CYP3A4-mediated 2-(4-(2-((1H-Benzo[d]imidazol-2-yl)sulfinyl)ethyl)piperazin-1-yl)-N-(6-methyl-2,4-bis(methylthio)pyridin-3-yl)acetamide formation; format: ADME
[31] = biological target: Cytochrome P450 2D6 (Homo sapiens, UniProt P10635); experiment: Drug metabolism in human liver microsomes assessed as CYP2D6-mediated 2-(4-(2-((1H-Benzo[d]imidazol-2-yl)thio)ethyl)piperazin-1-yl)-N-(6-methyl-4-(methylsulfinyl)-2-(methylthio)pyridin-3-yl)acetamide formation; format: ADME
[32] = tested on: Cytochrome P450; experiment: Drug metabolism in human liver microsomes assessed as Vmax for cytochrome p450-mediated 2-(4-(2-((1H-Benzo[d]imidazol-2-yl)thio)ethyl)piperazin-1-yl)-N-(6-methyl-4-(methylsulfinyl)-2-(methylthio)pyridin-3-yl)acetamide formation; format: ADME
[33] = Clearance in human liver microsomes assessed as 2-(4-(2-((5-Hydroxy-1H-benzo[d]imidazol-2-yl)thio)ethyl)piperazin-1-yl)-N-(6-methyl-2,4-bis(methylthio)pyridin-3-yl)acetamide level per mg protein; format: ADME, Microsome
[34] = biological target: T3, Cytochrome P450 3A4; experiment: Drug metabolism in human liver microsomes assessed as CYP3A4-mediated 2-(4-(2-((1H-Benzo[d]imidazol-2-yl)thio)ethyl)piperazin-1-yl)-N-(6-methyl-4-(methylsulfinyl)-2-(methylthio)pyridin-3-yl)acetamide formation; format: ADME
[35] = Metabolic stability in male rat liver microsomes assessed as assessed as parent compound remaining; format: ADME, Microsome
[36] = biological target: T4, Cytochrome P450 2C9; experiment: Drug metabolism in human liver microsomes assessed as CYP2C9-mediated 2-(4-(2-((5-Hydroxy-1H-benzo[d]imidazol-2-yl)thio)ethyl)piperazin-1-yl)-N-(6-methyl-2,4-bis(methylthio)pyridin-3-yl)acetamide formation; format: ADME
[37] = Retention time of the compound in human liver microsomes after 5 mins in presence of NADPH by LC-MS/MS analysis; format: ADME, Microsome

T4 sequence (P11712 whole entry): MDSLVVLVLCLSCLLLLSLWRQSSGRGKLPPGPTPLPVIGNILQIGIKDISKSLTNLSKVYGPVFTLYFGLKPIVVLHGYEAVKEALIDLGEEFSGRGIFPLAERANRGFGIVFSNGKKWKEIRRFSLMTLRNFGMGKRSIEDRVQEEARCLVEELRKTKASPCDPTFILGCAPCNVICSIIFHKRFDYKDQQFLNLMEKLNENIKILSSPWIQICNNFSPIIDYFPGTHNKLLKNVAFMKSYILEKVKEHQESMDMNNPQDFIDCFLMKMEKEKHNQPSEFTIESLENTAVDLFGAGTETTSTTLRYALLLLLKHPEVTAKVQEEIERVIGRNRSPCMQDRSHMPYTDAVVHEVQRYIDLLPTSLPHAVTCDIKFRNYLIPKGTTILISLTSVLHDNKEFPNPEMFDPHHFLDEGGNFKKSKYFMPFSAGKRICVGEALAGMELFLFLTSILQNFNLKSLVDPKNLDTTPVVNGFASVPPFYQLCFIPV
T3 sequence (P08684 whole entry): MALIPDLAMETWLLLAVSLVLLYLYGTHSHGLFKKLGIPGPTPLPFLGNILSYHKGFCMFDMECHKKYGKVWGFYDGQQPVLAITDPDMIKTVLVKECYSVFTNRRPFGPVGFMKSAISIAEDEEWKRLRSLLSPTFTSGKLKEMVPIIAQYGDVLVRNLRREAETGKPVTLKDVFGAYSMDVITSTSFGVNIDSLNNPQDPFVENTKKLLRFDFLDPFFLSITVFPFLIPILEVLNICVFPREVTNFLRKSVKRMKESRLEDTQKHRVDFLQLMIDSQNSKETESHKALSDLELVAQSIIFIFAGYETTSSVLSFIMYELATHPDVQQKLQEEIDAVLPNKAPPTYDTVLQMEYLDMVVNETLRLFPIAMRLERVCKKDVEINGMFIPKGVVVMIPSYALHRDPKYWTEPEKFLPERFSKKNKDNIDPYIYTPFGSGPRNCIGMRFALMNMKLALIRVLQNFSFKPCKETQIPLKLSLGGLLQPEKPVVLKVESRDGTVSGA
T2 sequence (P20815 whole entry): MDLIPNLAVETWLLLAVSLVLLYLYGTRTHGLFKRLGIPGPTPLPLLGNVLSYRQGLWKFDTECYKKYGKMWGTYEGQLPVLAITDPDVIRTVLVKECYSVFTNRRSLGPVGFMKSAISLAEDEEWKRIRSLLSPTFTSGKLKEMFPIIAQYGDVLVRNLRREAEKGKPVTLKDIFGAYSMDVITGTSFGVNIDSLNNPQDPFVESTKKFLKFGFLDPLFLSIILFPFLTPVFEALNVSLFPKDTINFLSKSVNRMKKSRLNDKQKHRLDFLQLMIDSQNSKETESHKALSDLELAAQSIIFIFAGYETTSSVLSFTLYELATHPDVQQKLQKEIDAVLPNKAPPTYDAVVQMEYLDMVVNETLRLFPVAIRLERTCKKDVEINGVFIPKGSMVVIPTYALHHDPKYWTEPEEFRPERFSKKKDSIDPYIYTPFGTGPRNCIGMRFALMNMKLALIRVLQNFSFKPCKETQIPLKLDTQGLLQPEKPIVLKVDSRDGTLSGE
Cytochrome P450 2D6, sequence (P10635 whole entry): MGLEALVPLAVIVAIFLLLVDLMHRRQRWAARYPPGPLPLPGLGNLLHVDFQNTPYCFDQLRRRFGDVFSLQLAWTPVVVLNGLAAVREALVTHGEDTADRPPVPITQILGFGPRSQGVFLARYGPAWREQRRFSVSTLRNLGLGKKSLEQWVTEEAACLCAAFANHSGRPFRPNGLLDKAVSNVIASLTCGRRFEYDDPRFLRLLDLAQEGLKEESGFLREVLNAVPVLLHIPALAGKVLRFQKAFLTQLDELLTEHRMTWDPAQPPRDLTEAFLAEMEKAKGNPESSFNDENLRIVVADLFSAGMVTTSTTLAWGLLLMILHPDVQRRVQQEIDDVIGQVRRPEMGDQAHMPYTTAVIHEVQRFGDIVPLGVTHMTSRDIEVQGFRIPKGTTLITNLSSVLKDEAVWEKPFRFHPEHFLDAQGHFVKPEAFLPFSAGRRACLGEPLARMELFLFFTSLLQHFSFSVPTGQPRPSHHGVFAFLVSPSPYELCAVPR

CSc1cc(C)nc(SC)c1NC(=O)CN1CCN(CCSc2nc3ccccc3[nH]2)CC1.Cl
Vmax [1]: 558 pmol/min/mg
Drug metabolism [2]: Metabolite_Detected
Drug metabolism [3]: Metabolite_Detected
Stabilty [4]: Stable
microsomal CLint [5]: 720 µL/min/mg
Km [6]: 4.3 µM
Drug metabolism [7]: Metabolite_Detected
Stabilty [8]: 76.1%
Drug metabolism [9]: Metabolite_Detected
Vmax [10]: 363 pmol/min/mg
Vmax [11]: 343 pmol/min/mg
Drug metabolism [12]: Metabolite_Detected
Drug metabolism [13]: Metabolite_Notdetected
Drug metabolism [14]: Metabolite_Detected
Drug metabolism [15]: Metabolite_Detected
Drug metabolism [16]: Metabolite_Notdetected
Drug metabolism [17]: Metabolite_Detected
Drug metabolism [18]: Metabolite_Notdetected
Km [19]: 2.6 µM
Drug metabolism [20]: Metabolite_Detected
Drug metabolism [21]: Metabolite_Notdetected
Km [22]: 2 µM
CLH [23]: 219 µL/min
CLH [24]: 125 µL/min
Km [25]: 1.3 µM
Drug metabolism [26]: Metabolite_Notdetected
Drug metabolism [27]: Metabolite_Detected
CLH [28]: 1353 µL/min
Drug metabolism [29]: Metabolite_Detected
Drug metabolism [30]: Metabolite_Detected
Drug metabolism [31]: Metabolite_Detected
Vmax [32]: 1773 pmol/min/mg
CLH [33]: 168 µL/min
Drug metabolism [34]: Metabolite_Detected
Stabilty [35]: 5.2%
Drug metabolism [36]: Metabolite_Notdetected

CSc1cc(C)nc(SC)c1NC(=O)CN1CCN(CC[S+]([O-])c2nc3ccccc3[nH]2)CC1 (stereo not drawn)
Retention_time [37]: 5.78 min

CSc1cc(C)nc([S+](C)[O-])c1NC(=O)CN1CCN(CCSc2nc3ccccc3[nH]2)CC1 (stereo not drawn)
Retention_time [37]: 2.73 min
